Data published in ChEMBL document CHEMBL1201862, “PubChem BioAssay data set” (2004).
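Test compounds were applied to cells in 96-well plates for 48 hours at 5 doses. At the GI50, growth is halved.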 Activity calls are given as the source filed them. Cut-off read from the data, not from the text of the source: active = GI50 up to about 1.1 µM and inactive = higher.

Legend:
Test in all cases: NCI-60 cell line screen, 48 h
[1] = system: NCI-H23
[2] = system: LXFL 529
[3] = system: KM-20L2
[4] = system: RXF 393
[5] = system: MDA-MB-231
[6] = system: SNB-19
[7] = system: U-251
[8] = system: SNB-75
[9] = system: SR
[10] = system: SK-MEL-2
[11] = system: OVCAR-8
[12] = system: Hs-578T
[13] = system: MDA-N
[14] = system: HL-60
[15] = system: Malme-3M
[16] = system: SW-620
[17] = system: MCF7
[18] = system: K562
[19] = system: OVCAR-5
[20] = system: NCI/ADR-RES
[21] = system: A498
[22] = system: HOP-62
[23] = system: LOX IMVI
[24] = system: CCRF-CEM
[25] = system: DLD-1
[26] = system: NCI-H522
[27] = system: 786-0
[28] = system: ACHN
[29] = system: UACC-257
[30] = system: DMS-114
[31] = system: OVCAR-4
[32] = system: SNB-78
[33] = system: UO-31
[34] = system: HOP-18
[35] = system: CAKI-1
[36] = system: XF498
[37] = system: IGROV-1
[38] = system: KM12
[39] = system: HCT-116
[40] = system: HOP-92
[41] = system: TK-10
[42] = system: COLO 205
[43] = system: HCT-15
[44] = system: SK-MEL-5
[45] = system: HCC 2998
[46] = system: RPMI-8226
[47] = system: HT-29
[48] = system: NCI-H226
[49] = system: M14
[50] = system: PC-3
[51] = system: MDA-MB-435
[52] = system: SF-268
[53] = system: SF-295
[54] = system: BT-549
[55] = system: M19-MEL
[56] = system: SK-OV-3
[57] = system: MOLT-4
[58] = system: A549
[59] = system: SN12C
[60] = system: DMS-273
[61] = system: DU-145
[62] = system: OVCAR-3
[63] = system: UACC-62
[64] = system: EKVX
[65] = system: NCI-H460
[66] = system: SK-MEL-28
[67] = system: SF-539
[68] = system: RXF 631

## CCOC(=O)Nc1cc2c(c(N)n1)N=C(c1ccccc1)[C@H](C)N2 [MIVOBULIN ISETHIONATE]
[1]
  GI50: 1.61 nM (active)
[2]
  GI50: < 0.1 nM (active)
[3]
  GI50: < 0.1 nM (active)
[4]
  GI50: < 0.1 nM (active)
[5]
  GI50: < 0.1 nM (active)
[6]
  GI50: < 0.1 nM (active)
[7]
  GI50: 36.9 nM (active)
[8]
  GI50: 0.215 nM (active)
[9]
  GI50: < 0.1 nM (active)
[10]
  GI50: < 0.1 nM (active)
[11]
  GI50: < 0.1 nM (active)
[12]
  GI50: < 0.1 nM (active)
[13]
  GI50: < 0.1 nM (active)
[14]
  GI50: < 0.1 nM (active)
[15]
  GI50: < 0.1 nM (active)
[16]
  GI50: < 0.1 nM (active)
[17]
  GI50: < 0.1 nM (active)
[18]
  GI50: < 0.1 nM (active)
[19]
  GI50: 23000 nM (inactive)
[20]
  GI50: < 0.1 nM (active)
[21]
  GI50: 29.9 nM (active)
[22]
  GI50: 56.2 nM (active)
[23]
  GI50: < 0.1 nM (active)
[24]
  GI50: < 0.1 nM (active)
[25]
  GI50: < 0.1 nM (active)
[26]
  GI50: < 0.1 nM (active)
[27]
  GI50: 2.15 nM (active)
[28]
  GI50: < 0.1 nM (active)
[29]
  GI50: 2.15 nM (active)
[30]
  GI50: < 0.1 nM (active)
[31]
  GI50: 3.63 nM (active)
[32]
  GI50: 10 nM (active)
[33]
  GI50: 0.303 nM (active)
[34]
  GI50: 641 nM (active)
[35]
  GI50: < 0.1 nM (active)
[36]
  GI50: < 0.1 nM (active)
[37]
  GI50: < 0.1 nM (active)
[38]
  GI50: < 0.1 nM (active)
[39]
  GI50: < 0.1 nM (active)
[40]
  GI50: 10 nM (active)
[41]
  GI50: 2.73 nM (active)
[42]
  GI50: < 0.1 nM (active)
[43]
  GI50: 32.4 nM
[44]
  GI50: < 0.1 nM (active)
[45]
  GI50: < 0.1 nM (active)
[46]
  GI50: 0.215 nM (active)
[47]
  GI50: < 0.1 nM (active)
[48]
  GI50: 2.15 nM (active)
[49]
  GI50: 0.11 nM (active)
[50]
  GI50: < 0.1 nM (active)
[51]
  GI50: < 0.1 nM (active)
[52]
  GI50: < 0.1 nM (active)
[53]
  GI50: < 0.1 nM (active)
[54]
  GI50: 10 nM (active)
[55]
  GI50: < 0.1 nM (active)
[56]
  GI50: 17400 nM (inactive)
[57]
  GI50: < 0.1 nM (active)
[58]
  GI50: < 0.1 nM (active)
[59]
  GI50: 47.5 nM (active)
[60]
  GI50: < 0.1 nM (active)
[61]
  GI50: < 0.1 nM (active)
[62]
  GI50: 0.468 nM (active)
[63]
  GI50: < 0.1 nM (active)
[64]
  GI50: 65.3 nM (active)
[65]
  GI50: < 0.1 nM (active)

## O=S(=O)(Cc1ccccc1)SCc1ccccc1
[1]
  GI50: 23100 nM (inactive)
[3]
  GI50: 21600 nM (inactive)
[4]
  GI50: 25800 nM (inactive)
[6]
  GI50: 33600 nM (inactive)
[7]
  GI50: 26000 nM (inactive)
[8]
  GI50: 33900 nM (inactive)
[9]
  GI50: 10900 nM (inactive)
[10]
  GI50: 30400 nM (inactive)
[11]
  GI50: 15200 nM (inactive)
[14]
  GI50: 5070 nM (inactive)
[15]
  GI50: 27300 nM (inactive)
[16]
  GI50: 4370 nM (inactive)
[18]
  GI50: 4910 nM (inactive)
[19]
  GI50: > 74000 nM (inactive)
[21]
  GI50: 25300 nM (inactive)
[22]
  GI50: 44600 nM (inactive)
[23]
  GI50: 16600 nM (inactive)
[24]
  GI50: 3240 nM (inactive)
[25]
  GI50: 7710 nM (inactive)
[26]
  GI50: 10700 nM (inactive)
[27]
  GI50: 22700 nM (inactive)
[28]
  GI50: 39600 nM (inactive)
[29]
  GI50: 24300 nM (inactive)
[30]
  GI50: 17500 nM (inactive)
[31]
  GI50: 21200 nM (inactive)
[32]
  GI50: 19300 nM (inactive)
[33]
  GI50: 61400 nM (inactive)
[34]
  GI50: 18900 nM (inactive)
[35]
  GI50: > 50900 nM (inactive)
[66]
  GI50: 34100 nM (inactive)
[37]
  GI50: 31600 nM (inactive)
[67]
  GI50: 18300 nM (inactive)
[38]
  GI50: 32400 nM (inactive)
[39]
  GI50: 10100 nM (inactive)
[40]
  GI50: 18500 nM (inactive)
[41]
  GI50: > 48100 nM (inactive)
[42]
  GI50: 19500 nM (inactive)
[43]
  GI50: 18400 nM
[44]
  GI50: 21400 nM (inactive)
[45]
  GI50: 17800 nM (inactive)
[46]
  GI50: 13300 nM (inactive)
[47]
  GI50: 25400 nM (inactive)
[48]
  GI50: 24500 nM (inactive)
[49]
  GI50: 14300 nM (inactive)
[52]
  GI50: 36800 nM (inactive)
[53]
  GI50: 24700 nM (inactive)
[55]
  GI50: 22200 nM (inactive)
[56]
  GI50: 48500 nM (inactive)
[57]
  GI50: 3090 nM (inactive)
[58]
  GI50: 30800 nM (inactive)
[59]
  GI50: 24700 nM (inactive)
[60]
  GI50: 29900 nM (inactive)
[62]
  GI50: 23400 nM (inactive)
[63]
  GI50: 23300 nM (inactive)
[64]
  GI50: 30200 nM (inactive)
[68]
  GI50: 19100 nM (inactive)
[65]
  GI50: 27600 nM (inactive)
